Measured values reported in patent US20210283211A1, “COMPOSITIONS AND METHODS OF ALLEVIATING RESISTANCE TO CHEMOTHERAPY” (CITY OF HOPE, priority 2019, published 2021).
Entries after “also recorded” stand apart in the source; their conditions may differ.

Tests used:
H358 cells = assay: Cell-based rescreen of top virtual-screen hits, IC50 determination; details: Homo sapiens, NCI-H358, 0.1 μM to 10 μM, 72 hours
Protocol: Cell viability assay: Cell Counting Kit-8 (CCK-8) was purchased from Dojindo Molecular Technologies (Rockville, Md., USA). Cells were seeded on a 96-well plate and allowed to adhere in complete medium for 24 hours. Test compounds were added to 100 μl of medium at the indicated concentrations for 72 hours. Ten μl of the CCK-8 reagent were added to each well and absorbance at 450 nm was measured using a Tecan Spark 10M multimode microplate reader.
A virtual screen of a library of 1440 FDA-approved drugs using binding pockets in the N-terminal domain of PXN (FIG. 9H) identified several putative hits. The top 40 hits were then rescreened employing a cell-based assay to determine their efficacy using H358 cells.

H1993 cells [1] = assay: IncuCyte cell proliferation and caspase-3/7 apoptosis assay; format: cell-based, human; details: for inhibition of cell proliferation: siRNA knockdown
Protocol: (§1) Cell proliferation and apoptosis assay. Cell proliferation assays were performed using cell lines stably transfected with NucLight Red Lentivirus (Essen Bioscience) to accurately visualize and count the nucleus of a single cell. Cells were seeded on a 96-well plate and allowed to adhere for 24 hours. Test compounds were added at indicated concentrations. Caspase-3/7 Green Apoptosis Reagent (Essen Bioscience) was also added as a green fluorescent indicator of caspase-3/7-mediated apoptotic activity. To monitor cell proliferation and apoptosis over time, the plate was placed in the IncuCyte S3 Live-Cell Analysis System (Essen BioScience) and images were acquired every 2 hours. Data analysis was generated by the IncuCyte software using a red fluorescence mask to accurately count each cell nucleus and a green fluorescence mask to measure apoptosis over time.
(§2) To determine whether the inhibition in cell proliferation associated with ITGB4 knockdown was due to enhanced apoptosis or reduced cell division (cytostatic), the Essen Bioscience Caspase-3/7 Green apoptosis assay in live cells was conducted. The NucView™[…], a DNA intercalating dye was used to enable quantification of apoptosis over time. The dye is impermeable and non-toxic to cells but once the cell membrane is permeabilized by caspase-3/7, the dye enters the cell and gets activated due to change in pH leading to the generation of green fluorescence that is then detected in real time and quantified using the IncuCyte System (FIG. 4B).
To address this, H1993 and H2009 cells were treated with cisplatin for 3 days and the changes were analyzed by immunoblotting. […] Next, H1993 and H2009 cells were transiently transfected with ITGB4 siRNA and 24 hours post-transfection they were treated with 10 μM cisplatin and cell proliferation and caspase activity were determined. […] However, in response to cisplatin in ITGB4 knockdown cells, the fold change dipped to <1, alluding to a cytotoxic effect (FIG. 4C). […] However, cell death was not due to caspase activation but appeared to be due to cell bursting which is seen in anoikis (FIGS. 3K and 3L). […]

H2009 cells [2] = assay: as above; format: cell-based, human
Protocol: as §1, §2
To address this, H1993 and H2009 cells were treated with cisplatin for 3 days and the changes were analyzed by immunoblotting. […] Next, H1993 and H2009 cells were transiently transfected with ITGB4 siRNA and 24 hours post-transfection they were treated with 10 μM cisplatin and cell proliferation and caspase activity were determined. […] However, in response to cisplatin in ITGB4 knockdown cells, the fold change dipped to <1, alluding to a cytotoxic effect (FIG. 4C). […] However, cell death was not due to caspase activation but appeared to be due to cell bursting which is seen in anoikis (FIGS. 3K and 3L).

H2009 cells [3] = assay: Scratch wound healing assay; format: cell-based, human; details: for cell migration / wound healing: sublethal dose (carfilzomib 50-200 nM)
Protocol: (§3) Scratch wound healing assay. Cells were seeded on a 96-well Image Lock (Essen BioScience, Ann Arbor, Mich., USA) plate to reach 90% confluence by the next day. After cell adherence, 96 uniform wounds were created simultaneously using the WoundMaker (Essen BioScience) tool. Cells were washed once with serum-free medium and replenished with complete medium. To monitor wound healing, the plate was placed in the IncuCyte S3 Live-Cell Analysis System (Essen BioScience) and images were acquired every hour. Data analysis was generated by the IncuCyte software using a set confluence mask to measure relative wound density over time.
(§4) To discern the effect of knocking down ITGB4 on cell migration, H1993 and H2009 cells were transfected with the control or ITGB4-specific siRNA in 6-well plates and 12 hours post transfection, the cells were trypsinized and reseeded at high density in a 96-well plate. […] While both cell lines transfected with the control siRNA achieved 100% confluency of the wound within 48 hours, H1993 and 2009 cells in which ITGB4 was knocked down reached ˜60% and ˜80% confluency, respectively; neither cell line reached 100% confluency even after 96 h (FIG. 3F). Next the rate of wound closure was estimated. The rate was determined by dividing initial wound width by the time taken to close the wound. […] Similarly, in the case of the H2009 cells, the wound width closure rate dropped from 22 μm/h to about 18 μm/h (FIG. 3G). […] Additionally, up regulation of expression of other integrin β forms in response to ITGB4 knockdown was checked and an increase in the expression of ITGB1, ITGB2, and ITGB3 at mRNA level was found (FIG. 3I). The effect of ITGB3 silencing in the ITGB4 knocked down cells was further tested but no significant difference in their proliferation was found (FIG. 3J).

[4] = tested on: ITGB4 and PXN expression, γH2AX in H358 cells; assay: Immunoblot after sublethal dose; format: cell-based, human; details: 72 hours
Protocol: West blotting: Cell lysates were prepared with 1×RIPA buffer (MilliporeSigma) and denatured in 1× reducing sample buffer at 95° C. for 5 minutes. Protein samples (15 μg) were run on 4-15% TGX gels (Bio-Rad, Hercules, Calif., USA) and transferred onto nitrocellulose membranes (Bio-Rad). Blots were blocked with 5% non-fat milk in TBS-T for 1 hour at room temperature and probed with primary antibody diluted in 2.5% BSA in TBS-T overnight at 4° C. After three washes with TBS-T, blots were incubated with HRP-conjugated secondary antibodies for 2 hours at room temperature. After three more washes, bands of interest were visualized via chemiluminescence using Western Bright ECL HRP substrate (Advansta, Menlo Park, Calif., USA) and imaged with the ChemiDoc MP imager (Bio-Rad).
Then a sublethal dose was used to determine the effect of these compounds on ITGB4 and PXN expression and caspase activity (FIG. 9I). […] These eleven compounds were further screened in the cisplatin-resistant cell line H2009. […] Further, carfilzomib was tested in another cisplatin-resistant cell line H1993.

H1993 cells [5] = assay: Scratch wound healing assay; format: cell-based, human; details: ITGB4 knockdown
Protocol: as §3, §4

CN(C)C/C=C/C(=O)Nc1cc2c(Nc3ccc(F)c(Cl)c3)ncnc2cc1O[C@H]1CCOC1 [Afatinib]
IC50 (H358 cells): 9 nM

CCS(=O)(=O)N1CCN(c2ccc(Nc3ncc(C(N)=O)c(NC4CC4)n3)cc2)CC1 [Cerdulatinib]
IC50 (H358 cells): 1540 nM

COc1cc2ncnc(Nc3ccc(F)c(Cl)c3)c2cc1NC(=O)/C=C/CN1CCCCC1 [Dacomitinib]
IC50 (H358 cells): 60 nM

Cc1cnc(-c2ccccc2C(C)C)nc1NCc1ccc(-n2ccnn2)cc1 [ML323]
cell proliferation rates (H1993 cells [1]; 5 μM and 10 μM, 3 days): no significant change
cell proliferation rates (H2009 cells [2]; 5 μM and 10 μM, 3 days): no significant change

Cc1nc(Nc2ncc(C(=O)Nc3c(C)cccc3Cl)s2)cc(N2CCN(CCO)CC2)n1 [Dasatinib]
IC50 (H358 cells): 1 nM

C=CC(=O)Nc1cc(Nc2nccc(-c3cn(C)c4ccccc34)n2)c(OC)cc1N(C)CCN(C)C [Osimertinib]
IC50 (H358 cells): 358 nM

C#Cc1cccc(Nc2ncnc3cc(OC)c(OCCCCCCC(=O)NO)cc23)c1 [CUDC-101]
IC50 (H358 cells): 501 nM
cell migration / wound healing (H2009 cells [3]): less effective than carfilzomib in inhibiting wound healing; also recorded: did not
apoptosis, DNA damage (γH2AX) and ITGB4 expression [4]: induced apoptosis and caused DNA damage

C1=C/COCc2cc(ccc2OCCN2CCCC2)Nc2nccc(n2)-c2cccc(c2)COC/1 [Pacritinib]
IC50 (H358 cells): 171 nM

GCUUCGCUGUCGGAUUUCATT (SEQ ID NO: 6) (chemistry not given here) [PXN siRNA, siRNA against PXN, Life Technologies Cat 4392421]
inhibition of cell proliferation (H1993 cells [1]): 15%

GUCAGUUCUGCGAGUAUGACAACTT (SEQ ID NO: 9) (chemistry not given here) [ITGB4 siRNA, siRNA against ITGB4, construct C, OriGene SR302473C]
wound confluency (H1993 cells [5]; control siRNA 100% within 48 hours): ~60%
wound closure rate (H1993 cells [5]; control ~25 μm/h): < 10 μm/h
wound width closure rate (H2009 cells [3]; ITGB4 knockdown, control 22 μm/h): about 18 μm/h
wound confluency (H2009 cells [3]; ITGB4 knockdown, control siRNA 100% within 48 hours): ~80%
fold change in cell count (H1993 cells [1]; ITGB4 knockdown or 10 μM cisplatin alone, cytostatic): ~1 fold
fold change in cell count (H1993 cells [1]; ITGB4 knockdown plus 10 μM cisplatin, cytotoxic): < 1 fold
increase in caspase activity compared to control (H1993 cells [1]; ITGB4 knockdown, by 24 hours): 5- to 6 fold
increase in caspase activity compared to control (H1993 cells [1]; ITGB4 knockdown, by 72 hours): 20 fold
increase in cell count (H1993 cells [1]; ITGB4 knockdown, by 72 hours): 0.2 fold
estimated doubling time (H1993 cells [1]; ITGB4 knockdown, control 72 hours): approximately 120 hours
drop in the fold change of cell count (H1993 cells [1]; knockdown plus cisplatin, compared to scramble siRNA cells treated with cisplatin): 40%
inhibition of cell proliferation (H1993 cells [1]): 50%
doubling time (H2009 cells [2]; ITGB4 knockdown, control approximately 25 hours): 40 h

CC(C)C[C@H](NC(=O)CNC(=O)c1cc(Cl)ccc1Cl)B(O)O [Ixazomib]
IC50 (H358 cells): 303 nM
cell migration / wound healing (H2009 cells [3]): less effective than carfilzomib in inhibiting wound healing; also recorded: impeded cell migration
apoptosis, DNA damage (γH2AX) and ITGB4 expression [4]: induced apoptosis and caused DNA damage

GGAGCACAAAGCCAACUAACGARCA (SEQ ID NO: 11) (listed as RNA, chemistry not given here) [USP1 siRNA, siRNA against USP1, construct B, OriGene SR305052B]
inhibition of cell proliferation (H2009 cells [2]; USP1 knockdown, by 72 hours of seeding): > 2 fold

C=CC(=O)N1CCC(Oc2cc3c(Nc4ccc(Cl)c(Cl)c4F)ncnc3cc2OC)CC1 [Poziotinib]
IC50 (H358 cells): 60 nM

Cc1cc(Nc2cc(N3CCN(C)CC3)nc(Sc3ccc(NC(=O)C4CC4)cc3)n2)[nH]n1 [Tozasertib]
IC50 (H358 cells): 0.9 nM

ACAACACUCAGAAUCUAAAUUGGAC (SEQ ID NO: 13) (listed as RNA, chemistry not given here) [VDAC1 siRNA, siRNA against VDAC1]
increase in apoptosis (H2009 cells [2]; VDAC1 knockdown, 120 hours): 2 fold
decrease in cell proliferation (H2009 cells [2]; VDAC1 knockdown, by 72 hours): 50%
